Test results taken from patent publication US10227376B2, “Radiolabeled cationic steroid antimicrobials and diagnostic methods” (BRIGHAM YOUNG UNIVERSITY, priority 2014, dated 2019).

Assay: Stability of labeled compounds in human serum
Type: in vitro ADME
Details: 64Cu labeled compound, four hours, 37 degrees C., 500 rpm incubation
Protocol: Stability of the labeled CSA-150 and CSA-151 compounds of Example 1 was measured. The labeled compounds were placed in human serum for four hours at 37 degrees C. at 500 rpm incubation.

For CCCCCCCCN(CCCC(C)[C@H]1CC[C@H]2[C@@H]3[C@H](OCCCNC(C)=O)C[C@@H]4C[C@H](OCCCNC(C)=O)CC[C@]4(C)[C@H]3C[C@H](OCCCNC(C)=O)[C@]12C)C(=O)NCCOCCOCCOCCOCCNC(=O)CN1CCN(CC(=O)O)CCN(CC(=O)O)CC1 (stereo partly shown) (64Cu complex, metal not drawn) [CSA-151], the “Stability of the labeled compound (% stable)” value was 100%.
